Like-named read-outs stand apart in the source and are kept apart here.
Assays:
[1] = tested on: BT474 and HN5 tumor cell lines; test: Methylene blue growth inhibition assay (cellular Method A); assay type: cell-based, Human; conditions: 3 days, read-out: Activity (Method): growth inhibition IC50 class
Protocol: Human breast (BT474) and head and neck (HN5) were cultured in low glucose DMEM (Life Technologies 12320-032) containing 10% fetal bovine serum (FBS). Human colon tumor cells (Colo205) were cultured in DMEM (Invitrogen, 10564) containing 10% FBS. The SV40 transformed human mammary epithelial cell line HB4a was transfected with either human H-ras cDNA (HB4a r4.2) or the human c-ErbB2 cDNA (HB4a c5.2). The HB4a clones were cultured in RPMI containing 10% FBS, insulin (5 g/mL), hydrocortisone (5 g/mL), supplemented with the selection agent hygromycin B (50 g/mL). All lines were grown in a humidified incubator at 37° C. in 95% air, 5% CO2. Cells were harvested using trypsin/EDTA, counted using a haemocytometer, and plated in 100 microliters of the appropriate media, at the following densities, in a 96-well tissue culture plate (Falcon 3075): BT474 10,000 cells/well, HN5 3,000 cells/well. The next day, compounds were diluted in DMEM containing […] gentamicin, at twice the final required concentration, from 10 mM stock solutions in DMSO. 100 microliters/well of these dilutions were added to the 100 microliters of media currently on the cell plates. Medium containing 0.6% DMSO was added to control wells. Compounds diluted in DMEM were added to all cell lines. The final concentration of DMSO in all wells was 0.3%. Cells were returned to the incubator (37° C., 10% CO2) for 3 days. Medium was then removed by aspiration. Cell biomass was estimated by staining cells with 90 microliters per well methylene blue (Sigma M9140, 0.5% in 1:1 ethanol:water), and incubation at rt for at least 30 minutes. Stain was removed, and the plates rinsed by immersion in deionized water and air-dried. To release stain from the cells 100 microliters of solubilization solution was added (1% N-lauroyl sarcosine, Sodium salt, Sigma L5125, in PBS), and plates were shaken gently for about 30 minutes. Optical density at 620 nm was measured on a microplate reader. Percent inhibition of cell growth was calculated relative to vehicle treated control wells. Concentration of compound that inhibits 50% of control cell growth (IC50) was interpolated using nonlinear regression (Levenberg-Marquardt) and the equation, y=Vmax*(1−(x/(K+x)))+Y2, where “K” was equal to the IC50. Method B: Celltiter Glo® Growth Inhibition Assays

ErbB2 or EGFR = target: T1, ErbB2 or EGFR; test: ErbB family substrate phosphorylation enzyme assay (HTRF), Method A or Method B; assay type: biochemical
T1 construct: enzymes purified from a baculovirus expression system; Reagent production was conducted essentially as described in Brignola, P. S., et al, (2002) J. Biol. Chem. 277(2): 1576-1585
Protocol: Compounds of the present invention were tested for EGFR, ErbB-2, and ErbB-4 protein tyrosine kinase inhibitory activity in substrate phosphorylation assays using enzymes purified from a baculovirus expression system. Reagent production was conducted essentially as described in Brignola, P. S., et al, (2002) J. Biol. Chem. 277(2): 1576-1585.
The method measures the ability of the isolated enzyme to catalyse the transfer of the gamma-phosphate from ATP onto the tyrosine residue of a biotinylated synthetic peptide referenced “Peptide C” in Brignola, P. S., et al, (2002) J. Biol. Chem. 277(2):1576-1585. The extent of tyrosine phosphorylation was measured using an anti-phosphotyrosine antibody, and quantified by homogenous time-resolved fluorescence (HTRF).
Reactions were performed in black 384-well polystyrene flat-bottom plates in a final volume of 20 ul. Assays were performed by adding 10 μl of each of the following solutions, substrate Mix and enzyme mix: The Substrate mix contained 100 mM 3-[N-morpholino]propanesulfonic acid (MOPS) (pH 7.5), 2 mM MnCl2, 20 μM ATP, 0.01% Tween-20, 0.1 mg/mL (BSA), 0.8 uM peptide substrate, and 1 mM dithiothreitol. The enzyme mix contained 100 mM MOPS (pH7.5); 0.01% Tween-20; 0.1 mg/mL BSA, and either 0.8 nM EGFR, 10 nM ErbB2, or 1 nM ErbB4
During the course of these studies, two separate methods have been used to measure the potency of compounds. In Method A, the substrate mix was added to the compound plates first, then the reaction was started by adding the enzyme mix. In Method B, the enzyme mix was added to the compound plates and the plates were incubated at 20° C. for 1 hour. The reactions were then started by adding the substrate mix.
After initiating the reaction with either method describe above, the reactions were allowed to proceed for 90 minutes at 20° C. The reactions were then terminated by the addition of 20 μl 100 mM EDTA to each well. 40 μl/well of HTRF detection mix were added to the assay plates. The final concentrations of the detection reagents were: 100 mM HEPES (pH7.5), 0.1 mg/mL BSA, 15 nM streptavidin-labeled allophycocyanin (PerkinElmer), and 1 nM europium-labeled anti-phosphotyrosine antibody (PerkinElmer). Assay plates were left unsealed and were counted in a Wallac Multilabel Counter 1420 (PerkinElmer).
Compounds under analysis were dissolved in Me2SO to 1.0 mM and serially diluted 1 to 3 with Me2SO through twelve dilutions. 1 μl of each concentration was transferred to the corresponding well of an assay plate. This creates a final compound concentration range from 0.00027 to 47.6 μM.
The data for dose responses were plotted as % Inhibition calculated with the data reduction formula 100*(1−(U1−C2)/(C1−C2)) versus concentration of compound where U is the unknown value, C1 is the average control value obtained for 4.76% DMSO, and C2 is the average control value obtained for 0.035 M EDTA. Data were fitted with a curve described by: y=((Vmax*x)/(K+x))+Y^2 where Vmax is the upper asymptote, Y2 is the Y intercept, and K is the IC50. The results for each compound were recorded as pIC50s, calculated as follows: pIC50=−Log 10(K)

[2] = Method B: enzyme mix pre-incubated with compound 1 hour at 20° C., started with substrate mix
[3] = Method A: substrate mix added first, reaction started with enzyme mix

| Molecule | IC50 ([1]; Homo sapiens, BT-474, 72 h) | Activity (Method): pIC50 class against ErbB2 or EGFR (ErbB2 or EGFR; [2]) | other results |
| --- | --- | --- | --- |
| N-[3-(3-{2-[4-(4-Cyanophenyl)phenylamino]-4-pyrimidinyl}-7-trifluoropyrazolo[1,5-b]pyridin-2-yl)phenyl]-2,6-difluorobenzamide [Example 93] |  |  | IC50 [1]: 100 to 1000 nM; Activity (Method): pIC50 class against ErbB2 or EGFR (ErbB2 or EGFR; [3]): ++ (A) (at least one pIC50 measurement greater than 6 against either ErbB2 or EGFR but no measurement greater than pIC50 of 7) |
| Cc1ccc(F)c(C(=O)Nc2cccc(-c3nn4ccccc4c3-c3ccnc(Nc4cccc(F)c4)n3)c2)c1F [Example 72, 2,6-Difluoro-N-[3-(3-{2-[(3-fluorophenyl)amino]-4-pyrimidinyl}pyrazolo[1,5-a]pyridin-2-yl)phenyl]-3-methylbenzamide] | 100 to 1000 nM | ++ (B) (at least one pIC50 measurement greater than 6 against either ErbB2 or EGFR but no measurement greater than pIC50 of 7) |  |
| CC(c1cccc(Nc2nccc(-c3c(-c4cccc(NC(=O)c5c(F)cccc5F)c4)nn4ccccc34)n2)c1)S(C)(=O)=O (single isomer, unassigned) [Example 124, 2,6-Difluoro-N-(3-{3-[2-({3-[1-(methylsulfonyl)ethyl]-phenyl}amino)-4-pyrimidinyl]pyrazolo[1,5-a]pyridin-2-yl}phenyl)benzamide] |  |  | IC50 [1]: < 100 nM |
| O=C(Nc1cccc(-c2nn3ccccc3c2-c2ccnc(Nc3cccc(F)c3)n2)c1)c1ccccn1 [Example 22, Pyridine-2-carboxylic acid (3-{3-[2-(3-fluoro-phenylamino)-pyrimidin-4-yl]-pyrazolo[1,5-a]pyridin-2-yl}-phenyl)-amide] | 100 to 1000 nM |  |  |
| Cc1nc2ccc(Nc3nccc(-c4c(-c5cccc(NC(=O)c6c(F)cccc6F)c5)nn5ccccc45)n3)cc2nc1C [Example 97, N-[3-(3-{2-[(2,3-Dimethyl-6-quinoxalinyl)amino]-4-pyrimidinyl}pyrazolo[1,5-a]pyridin-2-yl)phenyl]-2,6-difluorobenzamide] | 100 to 1000 nM |  |  |
| O=C(Cc1ccccc1)c1ccc(Nc2nccc(-c3c(-c4cccc(NC(=O)c5c(F)cccc5F)c4)nn4ccccc34)n2)cc1 [Example 102, 2,6-Difluoro-N-{3-[3-(2-{[4-(phenylacetyl)phenyl]-amino}-4-pyrimidinyl)pyrazolo[1,5-a]pyridin-2-yl]-phenyl}benzamide] | 100 to 1000 nM |  |  |
| O=C(Nc1cccc(-c2nn3ccccc3c2-c2ccnc(Nc3cccc(F)c3)n2)c1)c1ccccn1 [Example 76, N-[3-(3-{2-[(3-fluorophenyl)amino]-4-pyrimidinyl}pyrazolo[1,5-a]pyridin-2-yl)phenyl]-2-pyridinecarboxamide] |  |  | Activity (Method): pIC50 class against ErbB2 or EGFR (ErbB2 or EGFR; method not given): +++ (at least one pIC50 measurement of greater than 7 against either ErbB2 or EGFR) |
| Cc1ccc2c(-c3ccnc(Nc4cccc(F)c4)n3)c(-c3cccc(NC(=O)c4cc(F)ccc4F)c3)nn2c1 [Example 40, 2,5-Difluoro-N-[3-(3-{2-[(3-fluorophenyl)amino]-4-pyrimidinyl}-6-methylpyrazolo[1,5-a]pyridin-2-yl)phenyl]benzamide] | 100 to 1000 nM |  |  |

Second part, led by results:

| IC50 ([1]; Homo sapiens, BT-474, 72 h) | Molecule | Activity (Method): pIC50 class against ErbB2 or EGFR (ErbB2 or EGFR; [2]) | other results |
| --- | --- | --- | --- |
| 100 to 1000 nM | COc1ccccc1C(=O)Nc1cccc(-c2nn3ccccc3c2-c2ccnc(Nc3cccc(F)c3)n2)c1 [Example 69, N-[3-(3-{2-[(3-fluorophenyl)amino]-4-pyrimidinyl}pyrazolo[1,5-a]pyridin-2-yl)phenyl]-2-(methyloxy)benzamide] | +++ (B) (at least one pIC50 measurement of greater than 7 against either ErbB2 or EGFR) |  |
| 100 to 1000 nM | O=C(Nc1cccc(-c2nn3ccccc3c2-c2ccnc(Nc3cccc(F)c3)n2)c1)c1ccccc1 [Example 146] | +++ (B) (at least one pIC50 measurement of greater than 7 against either ErbB2 or EGFR) |  |
| < 100 nM | O=C(Nc1cccc(-c2nn3ccccc3c2-c2ccnc(Nc3cccc(-c4cnco4)c3)n2)c1)c1c(F)cccc1F [Example 35, 2,6-Difluoro-N-{3-[3-(2-{[3-(1,3-oxazol-5-yl)phenyl]amino}-4-pyrimidinyl)pyrazolo[1,5-a]pyridin-2-yl]phenyl}benzamide] | +++ (B) (at least one pIC50 measurement of greater than 7 against either ErbB2 or EGFR) |  |
| 100 to 1000 nM | CCS(=O)(=O)Cc1ccc(Nc2nccc(-c3c(-c4cccc(NC(=O)c5cc(F)ccc5F)c4)nn4ccccc34)n2)cc1 [Example 51, N-(3-{3-[2-({4-[(ethylsulfonyl)methyl]phenyl}amino)-4-pyrimidinyl]pyrazolo[1,5-a]pyridin-2-yl}phenyl)-2,5-difluorobenzamide] |  | Activity (Method): pIC50 class against ErbB2 or EGFR (ErbB2 or EGFR; [3]): +++ (A) (at least one pIC50 measurement of greater than 7 against either ErbB2 or EGFR) |
| 100 to 1000 nM | O=C(Nc1cccc(-c2nn3ccccc3c2-c2ccnc(Nc3cccc(F)c3)n2)c1)c1ccc(F)cc1Cl [Example 20, 2-Chloro-4-fluoro-N-(3-{3-[2-(3-fluoro-phenylamino)-pyrimidin-4-yl]-pyrazolo[1,5-a]pyridin-2-yl}-phenyl)-benzamide] | ++ (B) (at least one pIC50 measurement greater than 6 against either ErbB2 or EGFR but no measurement greater than pIC50 of 7) |  |
| 100 to 1000 nM | COc1ccc(Nc2nccc(-c3c(-c4cccc(NC(=O)c5c(F)cccc5F)c4)nn4c(C(F)(F)F)cccc34)n2)cc1F [Example 154, N-[3-(3-[2-{3-fluoro4-methoxyphenylamino]-4-pyrimidinyl}-7-trifluoropyrazolo[1,5-b]pyridin-2-yl)phenyl]-2,6-difluorobenzamide] |  | Activity (Method): pIC50 class against ErbB2 or EGFR (ErbB2 or EGFR; [3]): ++ (A) (at least one pIC50 measurement greater than 6 against either ErbB2 or EGFR but no measurement greater than pIC50 of 7) |
| < 100 nM | CC(c1cccc(Nc2nccc(-c3c(-c4cccc(NC(=O)c5c(F)cccc5F)c4)nn4ccccc34)n2)c1)S(C)(=O)=O (single isomer, unassigned) [Example 123, 2,6-Difluoro-N-(3-{3-[2-({3-[1-(methylsulfonyl)ethyl]-phenyl}amino)-4-pyrimidinyl]pyrazolo[1,5-a]pyridin-2-yl}phenyl)benzamide] |  |  |

From US7812022B2 (GlaxoSmithKline LLC, priority 2004, dated 2010)
